Measurements from US20250353820A1, “ANTIVIRAL PYRAZOLOPYRIDINONE COMPOUNDS” (Novartis AG, priority 2019, published 2025).

Target: human HSV DNA polymerase UL30 (Human herpesvirus 1 (strain 17) (HHV-1) (Human herpes simplex virus 1), UniProt P04293)
Assay: biochemical
Details: 625 pM HSV polymerase, 20 minutes at room temperature; read-out: HSV-polymerase Biochemical IC50

First: Cn1nc(C(=O)NCc2ccc(C#N)cc2)c2c1C(=O)N(CC1(S(=O)(=O)C3(C)COC3)CC1)CC2 [Example 172, N-(4-Cyanobenzyl)-1-methyl-6-((1-((3-methyloxetan-3-yl)sulfonyl)cyclopropyl)methyl)-7-oxo-4,5,6,7-tetrahydro-1H-pyrazolo[3,4-c]pyridine-3-carboxamide]
Second: Cn1nc(C(=O)NCc2ccc(C#N)cc2)c2c1C(=O)N(CC1(S(=O)(=O)N3CCC(C)(O)C3)CC1)CC2 (single isomer, unassigned) [Example 130, (R)- or (S)-N-(4-Cyanobenzyl)-6-((1-((3-hydroxy-3-methylpyrrolidin-1-yl)sulfonyl)cyclopropyl)methyl)-1-methyl-7-oxo-4,5,6,7-tetrahydro-1H-pyrazolo[3,4-c]pyridine-3-carboxamide]
The IC50 of the first is 1.9-fold lower: 63 nM for the first, 122 nM for the second.

Going from Cc1cc(NS(=O)(=O)C2(CN3CCc4c(C(=O)NCc5ccc(Cl)cc5)nn(C)c4C3=O)CC2)no1 [Example 166] to Cn1nc(C(=O)NCc2ccc(C#N)cc2)c2c1C(=O)N(CC1(S(=O)(=O)Nc3cc(C4CC4)on3)CC1)CC2 [Example 167], the IC50 rises from 12 nM to 104 nM (8.7-fold). The first is the more potent here.

Cn1nc(C(=O)NCc2ccc(C#N)cc2)c2c1C(=O)N(CC1(S(=O)(=O)N3CCC(O)CC3)CC1)CC2 [Example 125, N-(4-Cyanobenzyl)-6-((1-((4-hydroxypiperidin-1-yl)sulfonyl)cyclopropyl)methyl)-1-methyl-7-oxo-4,5,6,7-tetrahydro-1H-pyrazolo[3,4-c]pyridine-3-carboxamide] and Cn1nc(C(=O)NCc2ccc(C#N)cc2)c2c1C(=O)N(CC1(S(=O)(=O)N3CCOCC3)CC1)CC2 [Example 124, N-(4-Cyanobenzyl)-1-methyl-6-((1-(morpholinosulfonyl)cyclopropyl)methyl)-7-oxo-4,5,6,7-tetrahydro-1H-pyrazolo[3,4-c]pyridine-3-carboxamide] are within 1.5-fold of each other in IC50: 136 nM for the first, 121 nM for the second.

Compared with Cn1nc(C(=O)NCc2ccc(C#N)cc2)c2c1C(=O)N(CC1(S(=O)(=O)NCCN)CC1)CC2 [Example 135, 6-((1-(N-(2-Aminoethyl)sulfamoyl)cyclopropyl)methyl)-N-(4-cyanobenzyl)-1-methyl-7-oxo-4,5,6,7-tetrahydro-1H-pyrazolo[3,4-c]pyridine-3-carboxamide], Cn1nc(C(=O)NCc2ccc(C#N)cc2)c2c1C(=O)N(CC1(S(=O)(=O)C(C)(C)[C@H](O)CN)CC1)CC2 [Example 198, (R)-6-((1-((4-amino-3-hydroxy-2-methylbutan-2-yl)sulfonyl)cyclopropyl)methyl)-N-(4-cyanobenzyl)-1-methyl-7-oxo-4,5,6,7-tetrahydro-1H-pyrazolo[3,4-c]pyridine-3-carboxamide] is 47-fold lower in IC50: 1090 nM for the first, 23 nM for the second.

Compared with C[C@H](NC(=O)c1nn(C)c2c1CCN(CC1(S(=O)(=O)C3CC3)CC1)C2=O)c1ccc(C#N)cc1 [Example 16, (S)-N-(1-(4-Cyanophenyl)ethyl)-6-((1-(cyclopropylsulfonyl)cyclopropyl)methyl)-1-methyl-7-oxo-4,5,6,7-tetrahydro-1H-pyrazolo[3,4-c]pyridine-3-carboxamide], Cn1nc(C(=O)NCc2ccc(F)cc2)c2c1C(=O)N(CC1(S(=O)(=O)C3CC3)CC1)CC2 [Example 5, 6-((1-(Cyclopropylsulfonyl)cyclopropyl)methyl)-N-(4-fluorobenzyl)-1-methyl-7-oxo-4,5,6,7-tetrahydro-1H-pyrazolo[3,4-c]pyridine-3-carboxamide] is 1.7-fold higher in IC50: 239 nM for the first, 416 nM for the second.

First: Cc1cccnc1NS(=O)(=O)C1(CN2CCc3c(C(=O)NCc4ccc(C#N)cc4)nn(C)c3C2=O)CC1 [Example 164]
Second: CNCCOCC(C)(C)S(=O)(=O)C1(CN2CCc3c(C(=O)NCc4ccc(C#N)cc4)nn(C)c3C2=O)CC1 [Example 101, N-(4-Cyanobenzyl)-1-methyl-6-((1-((2-methyl-1-(2-(methylamino)ethoxy)propan-2-yl)sulfonyl)cyclopropyl)methyl)-7-oxo-4,5,6,7-tetrahydro-1H-pyrazolo[3,4-c]pyridine-3-carboxamide]
The IC50 of the first is 5.8-fold higher: 185 nM for the first, 32 nM for the second.

Compared with Cn1nc(C(=O)NCc2ccc(C#N)cc2)c2c1C(=O)N(CC1(S(=O)(=O)C(C)(C)CN3CC4CC(C3)O4)CC1)CC2 [Example 63, 6-((1-((1-(6-Oxa-3-azabicyclo[3.1.1]heptan-3-yl)-2-methylpropan-2-yl)sulfonyl)cyclopropyl)methyl)-N-(4-cyanobenzyl)-1-methyl-7-oxo-4,5,6,7-tetrahydro-1H-pyrazolo[3,4-c]pyridine-3-carboxamide], COC1CN(CC(C)(C)S(=O)(=O)C2(CN3CCc4c(C(=O)NCc5ccc(C#N)cc5)nn(C)c4C3=O)CC2)C1 [Example 66, N-(4-Cyanobenzyl)-6-((1-((1-(3-methoxyazetidin-1-yl)-2-methylpropan-2-yl)sulfonyl)cyclopropyl)methyl)-1-methyl-7-oxo-4,5,6,7-tetrahydro-1H-pyrazolo[3,4-c]pyridine-3-carboxamide] is 2-fold lower in IC50: 100 nM for the first, 50 nM for the second. The second is the more potent here.

CC(C)(O)Cn1nc(C(=O)NCc2ccc(C#N)cc2)c2c1C(=O)N(CC1(S(C)(=O)=O)CC1)CC2 [Example 232] and CS(=O)(=O)C1(CN2CCc3c(C(=O)NCc4ccc(Cl)cc4)nn(CCO)c3C2=O)CC1 [Example 219] are within 1.5-fold of each other in IC50: 339 nM for the first, 401 nM for the second.

Cn1nc(C(=O)NCc2ccc(Cl)cc2)c2c1C(=O)N(CC1(S(=O)(=O)C(C)(C)[C@H](O)CO)CC1)CC2 [Example 191, (R)—N-(4-Chlorobenzyl)-6-((1-((3,4-dihydroxy-2-methylbutan-2-yl)sulfonyl)cyclopropyl)methyl)-1-methyl-7-oxo-4,5,6,7-tetrahydro-1H-pyrazolo[3,4-c]pyridine-3-carboxamide] and CC(C)(CO)S(=O)(=O)C1(CN2CCc3c(C(=O)NCc4ccc(Cl)cc4)nn(CCO)c3C2=O)CC1 [Example 221] are within 1.5-fold of each other in IC50: 11 nM for the first, 13 nM for the second.

System: Luciferase-encoding HCMV (AD169 strain)
Assay: microbe, parasite or virus in culture
Format: cell-based
Details: read-out: CMV-Luc Cellular EC50; NN-NHDF cells, MOI of 1, 72 hrs

Compared with CC(O)COCC(C)(C)S(=O)(=O)C1(CN2CCc3c(C(=O)NCc4ccc(C#N)cc4)nn(C)c3C2=O)CC1 (single isomer, unassigned) [Example 91, (R)- or (S)—N-(4-Cyanobenzyl)-6-((1-((1-(2-hydroxypropoxy)-2-methylpropan-2-yl)sulfonyl)cyclopropyl)methyl)-1-methyl-7-oxo-4,5,6,7-tetrahydro-1H-pyrazolo[3,4-c]pyridine-3-carboxamide], CC(O)CC(C)(C)S(=O)(=O)C1(CN2CCc3c(C(=O)NCc4ccc(C#N)cc4)nn(C)c3C2=O)CC1 (single isomer, unassigned) [Example 116, (R)- or (S)—N-(4-Cyanobenzyl)-6-((1-((4-hydroxy-2-methylpentan-2-yl)sulfonyl)cyclopropyl)methyl)-1-methyl-7-oxo-4,5,6,7-tetrahydro-1H-pyrazolo[3,4-c]pyridine-3-carboxamide] is 1.9-fold lower in EC50: 76 nM for the first, 39 nM for the second.

Cn1nc(C(=O)NCc2ccc(C#N)cc2)c2c1C(=O)N(CC1(S(=O)(=O)C(C)(C)COC(F)CN)CC1)CC2 (single isomer, unassigned) [Example 82, (R)- or (S)-6-((1-((1-(2-amino-1-fluoroethoxy)-2-methylpropan-2-yl)sulfonyl)cyclopropyl)methyl)-N-(4-cyanobenzyl)-1-methyl-7-oxo-4,5,6,7-tetrahydro-1H-pyrazolo[3,4-c]pyridine-3-carboxamide] and Cn1nc(C(=O)NCc2ccc(C#N)cc2)c2c1C(=O)N(CC1(S(=O)(=O)C(C)(C)COC(F)CO)CC1)CC2 (single isomer, unassigned) [Example 81, (R)- or (S)—N-(4-cyanobenzyl)-6-((1-((1-(1-fluoro-2-hydroxyethoxy)-2-methylpropan-2-yl)sulfonyl)cyclopropyl)methyl)-1-methyl-7-oxo-4,5,6,7-tetrahydro-1H-pyrazolo[3,4-c]pyridine-3-carboxamide] are within 1.5-fold of each other in EC50: 29 nM for the first, 42 nM for the second.

First: Cn1nc(C(=O)NCc2ccc(C#N)cc2)c2c1C(=O)N(CC1(S(=O)(=O)C(C)(C)C(O)C(C)(C)N)CC1)CC2 (single isomer, unassigned) [Example 212, (R)- or (S)-6-((1-((4-Amino-3-hydroxy-2,4-dimethylpentan-2-yl)sulfonyl)cyclopropyl)methyl)-N-(4-cyanobenzyl)-1-methyl-7-oxo-4,5,6,7-tetrahydro-1H-pyrazolo[3,4-c]pyridine-3-carboxamide]
Second: COCC(C)(CO)S(=O)(=O)C1(CN2CCc3c(C(=O)NCc4ccc(C#N)cc4)nn(C)c3C2=O)CC1 (single isomer, unassigned) [Example 182, (R)- or (S)—N-(4-Cyanobenzyl)-6-((1-((1-hydroxy-3-methoxy-2-methylpropan-2-yl)sulfonyl)cyclopropyl)methyl)-1-methyl-7-oxo-4,5,6,7-tetrahydro-1H-pyrazolo[3,4-c]pyridine-3-carboxamide]
The EC50 of the first is 7.1-fold lower: 7 nM for the first, 50 nM for the second.

First: CC1Cc2c(C(=O)NCc3ccc(C#N)cc3)nn(C)c2C(=O)N1CC1(S(C)(=O)=O)CC1 (single isomer, unassigned) [Example 41, (R)- or (S)—N-(4-cyanobenzyl)-1,5-dimethyl-6-((1-(methylsulfonyl)cyclopropyl)methyl)-7-oxo-4,5,6,7-tetrahydro-1H-pyrazolo[3,4-c]pyridine-3-carboxamide]
Second: CC1=NOC(C(C)(C)S(=O)(=O)C2(CN3CCc4c(C(=O)NCc5ccc(C#N)cc5)nn(C)c4C3=O)CC2)C1 (single isomer, unassigned) [Example 112, (R)- or (S)—N-(4-Cyanobenzyl)-1-methyl-6-((1-((2-(3-methyl-4,5-dihydroisoxazol-5-yl)propan-2-yl)sulfonyl)cyclopropyl)methyl)-7-oxo-4,5,6,7-tetrahydro-1H-pyrazolo[3,4-c]pyridine-3-carboxamide]
The EC50 of the first is higher: over 10000 nM for the first, 64 nM for the second. The second is the more potent here.

Cn1nc(C(=O)NCc2ccc(C#N)cc2)c2c1C(=O)N(CC1(S(=O)(=O)C(C)(C)COC(F)CN)CC1)CC2 (single isomer, unassigned) [Example 83, (R)- or (S)-6-((1-((1-(2-amino-1-fluoroethoxy)-2-methylpropan-2-yl)sulfonyl)cyclopropyl)methyl)-N-(4-cyanobenzyl)-1-methyl-7-oxo-4,5,6,7-tetrahydro-1H-pyrazolo[3,4-c]pyridine-3-carboxamide] showed an EC50 of 133 nM.
